Reference: patent publication US11279681B2, “3-alkyl bicyclic [4,5,0] hydroxamic acids as HDAC inhibitors” (Valo Health, Inc., priority 2015, dated 2022)

Target: T1, HDAC6 (Homo sapiens, UniProt Q9UBN7)
T1 sequence (Q9UBN7 1-1215): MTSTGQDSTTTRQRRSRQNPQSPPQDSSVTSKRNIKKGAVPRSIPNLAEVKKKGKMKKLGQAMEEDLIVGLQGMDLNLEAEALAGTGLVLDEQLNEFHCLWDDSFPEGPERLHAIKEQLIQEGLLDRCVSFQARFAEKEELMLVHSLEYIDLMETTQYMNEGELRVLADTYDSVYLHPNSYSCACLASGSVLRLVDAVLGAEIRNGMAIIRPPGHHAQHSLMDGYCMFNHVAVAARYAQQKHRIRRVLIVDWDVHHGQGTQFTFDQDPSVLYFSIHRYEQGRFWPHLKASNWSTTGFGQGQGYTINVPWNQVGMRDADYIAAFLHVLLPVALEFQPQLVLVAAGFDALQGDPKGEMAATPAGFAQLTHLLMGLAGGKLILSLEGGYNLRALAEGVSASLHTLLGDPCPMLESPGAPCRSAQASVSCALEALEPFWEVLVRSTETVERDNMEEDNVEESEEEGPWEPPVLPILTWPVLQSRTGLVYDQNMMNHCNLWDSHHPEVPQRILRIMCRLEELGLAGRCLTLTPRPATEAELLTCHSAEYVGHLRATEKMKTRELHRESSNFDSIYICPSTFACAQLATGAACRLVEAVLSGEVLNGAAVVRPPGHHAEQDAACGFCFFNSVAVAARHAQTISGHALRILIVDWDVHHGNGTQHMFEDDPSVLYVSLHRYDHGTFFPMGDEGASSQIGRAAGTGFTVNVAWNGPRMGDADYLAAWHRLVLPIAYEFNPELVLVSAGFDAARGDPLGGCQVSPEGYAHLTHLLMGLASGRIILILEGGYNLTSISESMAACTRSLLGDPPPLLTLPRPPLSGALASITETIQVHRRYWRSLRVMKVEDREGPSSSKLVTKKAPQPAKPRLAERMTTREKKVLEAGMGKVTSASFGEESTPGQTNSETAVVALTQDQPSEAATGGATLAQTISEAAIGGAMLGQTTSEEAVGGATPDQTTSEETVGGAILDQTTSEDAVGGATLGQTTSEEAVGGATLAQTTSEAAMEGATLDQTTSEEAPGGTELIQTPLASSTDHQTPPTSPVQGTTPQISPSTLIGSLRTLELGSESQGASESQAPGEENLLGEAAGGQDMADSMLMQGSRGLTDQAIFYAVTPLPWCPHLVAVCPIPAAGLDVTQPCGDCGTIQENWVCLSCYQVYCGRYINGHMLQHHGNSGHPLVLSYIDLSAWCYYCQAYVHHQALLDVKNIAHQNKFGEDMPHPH
Assay: In vitro histone deacetylase assay: enzymatic HDAC6 electrophoretic mobility shift assay
Type: biochemical
Details: full length human recombinant HDAC6, 1 nM enzyme, 2 μM peptide substrate RHKK(Ac)-NH2, 25° C.; read-out: Inhibitory Concentration (IC50) Values for Representative Compounds against HDAC6, Activity Range
Procedure: The enzymatic HDAC6 assay was performed using electrophoretic mobility shift assay. […] The enzymatic reactions were assembled in 384 well plates in a total volume of 25 μL in a reaction buffer composing: 100 mM HEPES, pH7.5, 25 mM KCl, 0.1% bovine serum albumin, 0.01% Triton X-100, 1% DMSO (from compounds) 2 μM of the fluorescently labeled peptide substrate and enzyme. The enzyme was added at a final concentration of 1 nM. The peptide substrate RHKK(Ac)-NH2 was used. The compounds were tested at 12 concentrations spaced by 3× dilution intervals. Negative control samples (0%-inhibition in the absence of inhibitor) and positive control samples (100%-inhibition) were assembled in replicates of four in each assay plate. The reactions were incubated at 25° C. and quenched by the addition of 45 μL of termination buffer (100 mM HEPES, pH 7.5, 0.01% Triton X-100, 0.05% SDS).
The terminated assay plates were analyzed on LabChip® 3000 microfluidic electrophoresis instrument (Perkin Elmer/Caliper Life Sciences). The fluorescence intensity of the electrophoretically separated de-acetylated product and substrate peptide was measured. Activity in each sample was determined as the product to sum ratio (PSR): P/(S+P), where P is the peak height of the product peptide and S is the peak height of the substrate peptide. Percent inhibition (Pinh) is determined using the following equation:
Pinh=(PSR0%−PSRinh)/(PSR0%−PSR100%)*100, where PSRinh is the product sum ratio in the presence of inhibitor, PSR0% is the average product sum ration in the absence of inhibitor and PSR100% is the average product sum ratio in 100%-inhibition control samples. The IC50 values of inhibitors were determined by fitting the %-inhibition curves with 4 parameter dose-response model using XLfit 4 software.

IC50 [nM]	Compound
100 to 500	O=C(NO)c1ccc2c(c1)OCCN(c1nc3ccccc3n1CC1CCCCC1)C2
≤ 100	O=C(NO)c1ccc2c(c1)OCCN(c1nc3ccccc3o1)C2
> 500	CN(C)CCN1CCOc2cc(C(=O)NO)ccc2C1
100 to 500	CC(C)(C)Oc1ccc(CN2CC(=O)Nc3ccc(C(=O)NO)cc3C2)cc1
≤ 100	COc1ccc(OC(=O)N2CCOc3cc(C(=O)NO)ccc3C2)cc1
> 500	CC(C)N1CCC(CN2CC(=O)Nc3ccc(C(=O)NO)cc3C2)CC1
≤ 100	O=C1CN(Cc2ccc(-n3cccc3)cc2)Cc2cc(C(=O)NO)ccc2N1
≤ 100	O=C1CN(Cc2ccc(-c3nccs3)cc2)Cc2cc(C(=O)NO)ccc2N1
100 to 500	O=C(NO)c1ccc2c(c1)OCCN(c1nc3ccccc3n1CC1CCOCC1)C2
100 to 500	O=C1CN(Cc2ccnc(N3CCOCC3)c2)Cc2cc(C(=O)NO)ccc2N1
100 to 500	COc1ccc(CN2Cc3ccc(C(=O)NO)cc3OCC2(C)C)cc1
> 500	COc1ccc(CN2CCOc3ccc(C(=O)NO)cc3C2)nc1
100 to 500	COc1ccc(CN2CCOc3cc(C(=O)NO)ccc3C2)nc1
> 500	COc1ccc(CN2CCOc3ccc(C(=O)NO)cc3C2)cn1
100 to 500	COc1ccc(CN2CCOc3cc(C(=O)NO)ccc3C2)cn1
100 to 500	O=C1CN(Cc2ccn3ccnc3c2)Cc2cc(C(=O)NO)ccc2N1
≤ 100	O=C1CN(Cc2ccc3ccccc3c2)Cc2cc(C(=O)NO)ccc2N1
≤ 100	O=C(NO)c1ccc2c(c1)OCCN(C(=O)N1CCCCC1)C2
≤ 100	O=C(NO)c1ccc2c(c1)OCCN(S(=O)(=O)N1CCCCC1)C2
> 500	CN(C(=O)N1CCOc2cc(C(=O)NO)ccc2C1)c1ccccc1
100 to 500	C[C@@H]1CN(c2ccccc2)Cc2ccc(C(=O)NO)cc2O1
100 to 500	COc1ccc(S(=O)(=O)N2Cc3ccc(C(=O)NO)cc3O[C@H](C)C2)cc1
100 to 500	COc1ccc(CN2Cc3ccc(C(=O)NO)cc3O[C@H](C)C2)cc1
100 to 500	COc1ccc(NC(=O)N2Cc3ccc(C(=O)NO)cc3O[C@H](C)C2)cc1
> 500	C[C@H]1CN(c2ccccc2)Cc2ccc(C(=O)NO)cc2O1
> 500	COc1ccc(S(=O)(=O)N2Cc3ccc(C(=O)NO)cc3O[C@@H](C)C2)cc1
100 to 500	COc1ccc(CN2Cc3ccc(C(=O)NO)cc3O[C@@H](C)C2)cc1

IC50 [nM]	Compound
≤ 100	COc1ccc(NC(=O)N2Cc3ccc(C(=O)NO)cc3O[C@@H](C)C2)cc1
≤ 100	CC(C)[C@@H]1COc2cc(C(=O)NO)ccc2CN1
≤ 100	COc1ccc(CN2Cc3ccc(C(=O)NO)cc3OC[C@H]2C(C)C)cc1
≤ 100	CC(C)[C@@H]1COc2cc(C(=O)NO)ccc2CN1C
100 to 500	CC(C)[C@@H]1COc2cc(C(=O)NO)ccc2CN1c1ccccc1
100 to 500	COc1ccc(NC(=O)N2Cc3ccc(C(=O)NO)cc3OC[C@H]2C(C)C)cc1
≤ 100	CC(C)[C@H]1COc2cc(C(=O)NO)ccc2CN1
≤ 100	COc1ccc(CN2Cc3ccc(C(=O)NO)cc3OC[C@@H]2C(C)C)cc1
≤ 100	CC(C)[C@H]1COc2cc(C(=O)NO)ccc2CN1C
≤ 100	CC(C)[C@H]1COc2cc(C(=O)NO)ccc2CN1c1ccccc1
≤ 100	COCCN(C)C(=O)N1Cc2ccc(C(=O)NO)cc2OC[C@@H]1C
≤ 100	COc1ccc(NC(=O)N2Cc3ccc(C(=O)NO)cc3OC[C@@H]2C(C)C)cc1
≤ 100	O=C(NO)c1ccc2c(c1)OCCN(C(=O)OC1CCCCC1)C2
100 to 500	O=C1CN(Cc2ccccc2)Cc2cc(C(=O)NO)ccc2N1 [4-benzyl-N-hydroxy-2-oxo-2,3,4,5-tetrahydro-1H-benzo[e][1,4]diazepine-7-carboxamide]
> 500	O=C(NO)c1ccc2c(c1)OCCN(C1CCCCC1)C2 [4-cyclohexyl-N-hydroxy-2,3,4,5-tetrahydrobenzo[f][1,4]oxazepine-8-carboxamide]
≤ 100	C[C@H]1COc2cc(C(=O)NO)ccc2CN1C(=O)Oc1ccc(F)cc1 [4-fluorophenyl(S)-8-(hydroxycarbamoyl)-3-methyl-2,3-dihydrobenzo[f][1,4]oxazepine-4(5H)-carboxylate]
100 to 500	CC(c1ccc(F)cc1)N1Cc2ccc(C(=O)NO)cc2OC[C@@H]1C (stereo partly drawn) [(3S)-4-(1-(4-fluorophenyl)ethyl)-N-hydroxy-3-methyl-2,3,4,5-tetrahydrobenzo[f][1,4]oxazepine-8-carboxamide]
≤ 100	C[C@H]1COc2cc(C(=O)NO)ccc2CN1CCC1CCCO1 (stereo partly drawn) [(3S)-N-hydroxy-3-methyl-4-(2-(tetrahydrofuran-2-yl)ethyl)-2,3,4,5-tetrahydrobenzo[f][1,4]oxazepine-8-carboxamide]
≤ 100	CC1CCCCN1C(=O)N1Cc2ccc(C(=O)NO)cc2OC[C@@H]1C (stereo partly drawn) [(3S)-N-hydroxy-3-methyl-4-(2-methylpiperidine-1-carbonyl)-2,3,4,5-tetrahydrobenzo[f][1,4]oxazepine-8-carboxamide]
≤ 100	CC1COCCN1C(=O)N1Cc2ccc(C(=O)NO)cc2OC[C@@H]1C (stereo partly drawn) [(3S)-N-hydroxy-3-methyl-4-(3-methylmorpholine-4-carbonyl)-2,3,4,5-tetrahydrobenzo[f][1,4]oxazepine-8-carboxamide]
≤ 100	C[C@H]1COc2cc(C(=O)NO)ccc2CN1CC1CCCO1 (stereo partly drawn) [(3S)-N-hydroxy-3-methyl-4-((tetrahydrofuran-2-yl)methyl)-2,3,4,5-tetrahydrobenzo[f][1,4]oxazepine-8-carboxamide]
≤ 100	COC1CCN(C(=O)N2Cc3ccc(C(=O)NO)cc3OC[C@@H]2C)C1 (stereo partly drawn) [(3S)-N-hydroxy-4-(3-methoxypyrrolidine-1-carbonyl)-3-methyl-2,3,4,5-tetrahydrobenzo[f][1,4]oxazepine-8-carboxamide]
100 to 500	COC[C@H]1CN(C(=O)Nc2ccc(OC)cc2)Cc2ccc(C(=O)NO)cc2O1 [(R)-N8-hydroxy-2-(methoxymethyl)-N4-(4-methoxyphenyl)-2,3-dihydrobenzo[f][1,4]oxazepine-4,8(5H)-dicarboxamide]
> 500	COc1ccc(NC(=O)N2Cc3ccc(C(=O)NO)cc3O[C@H](C(C)C)C2)cc1 [(R)-N8-hydroxy-2-isopropyl-N4-(4-methoxyphenyl)-2,3-dihydrobenzo[f][1,4]oxazepine-4,8(5H)-dicarboxamide]
100 to 500	COc1ccc(NC(=O)N2Cc3ccc(C(=O)NO)cc3O[C@H](c3ccccc3)C2)cc1 [(R)-N8-hydroxy-N4-(4-methoxyphenyl)-2-phenyl-2,3-dihydrobenzo[f][1,4]oxazepine-4,8(5H)-dicarboxamide]
≤ 100	COC[C@@H]1COc2cc(C(=O)NO)ccc2CN1c1ccccc1C [(R)-N-hydroxy-3-(methoxymethyl)-4-(o-tolyl)-2,3,4,5-tetrahydrobenzo[f][1,4]oxazepine-8-carboxamide]
≤ 100	COC[C@@H]1COc2cc(C(=O)NO)ccc2CN1C [(R)-N-hydroxy-3-(methoxymethyl)-4-methyl-2,3,4,5-tetrahydrobenzo[f][1,4]oxazepine-8-carboxamide]
